{"source": "patent USRE46698E1", "about": "“Use of cyclohexanol derivatives as antimicrobial active compounds” (MERCK PATENT GMBH, priority 2011, dated 2018)", "key": {"[1]": {"assay": "Rancimate assay, antioxidative capacity (Example 1)", "conditions": "0.1% w/w in soya oil; 120° C.; input of air 201/h", "protocol": "The antioxidative capacity of substances I-9, I-10 and I-2 is determined in the so-called Rancimate assay. The comparative substances used are 4-t-butyl-1-cyclohexanol and tocopherol. The positive standard employed is BHT. The measurement parameter is the time duration (induction time) of the increase in the conductivity of unstabilised soya oil on exposure to air at elevated temperature. The longer the induction time, the greater the stabilising or antioxidant action. The following boundary conditions were maintained: input of air 201/h; temperature 120° C. and sample concentrations of 0.1% w/w each in soya oil. For each test substance, a relative antioxidation-protection factor is determined, which corresponds to the ratio of the induction times with and without test substance: […]"}, "[2]": {"system": "S. epidermidis (ATCC 12228)", "assay": "Growth inhibition by optical density, Bioscreen C (Example 3)", "type": "cell-based, Staphylococcus epidermidis", "conditions": "1st experiment; 1.0% sample in water/ethanol (12% of ethanol) diluted 1 to 2 with bacteria suspension; 37° C.; negative control 0.80", "protocol": "For sample preparation, the substances being investigated are each dissolved or homogeneously dispersed in an amount of 1.0% in a water/ethanol mixture (12% of ethanol) and subsequently diluted with bacteria suspension in the ratio 1 to 2. S. epidermidis (ATCC 12228) is pre-incubated under aerobic conditions for 24 h at 35° C. on CASO agar (Merck 1.05458). A bacteria suspension having an optical density (OD) of about 1.0 is subsequently prepared in CASO broth (Merck 1.05459, double-concentrated) and diluted again 1:10 in CASO broth. 150 μl of freshly prepared sample are added to 150 μl of bacteria suspension per well. The optical density is determined over the course of time at 37° C. using a Bioscreen C™ analyser compared with the negative control (=vehicle without test substance). Compared with the negative control, reduced optical densities confirm growth-inhibiting substance actions\n(§1) Result as optical density of the bacteria suspension after an exposure time of 20 hours: […]"}, "P. acnes (ATCC 6919)": {"system": "P. acnes (ATCC 6919)", "assay": "Growth inhibition by optical density, Bioscreen C (Example 4)", "type": "cell-based, Propionibacterium acnes", "conditions": "1.0% sample in water/ethanol (12% of ethanol) diluted 1 to 2 with bacteria suspension; 37° C.; negative control 1.0", "protocol": "(§2) For sample preparation, the substances being investigated are each dissolved or homogeneously dispersed in an amount of 1.0% in a water/ethanol mixture (12% of ethanol) and subsequently diluted with bacteria suspension in the ratio 1 to 2. P. acnes (ATCC 6919) is pre-incubated under anaerobic conditions for 48 h at 35° C. on RMC agar (Merck 1.05410). A bacteria suspension having an optical density (OD) of about 1.5 is subsequently prepared in RMC broth (Merck 1.05411, double-concentrated). 150 μl of freshly prepared sample and 100 μl of paraffin are added to 150 μl of bacteria suspension per well. The optical density is determined over the course of time at 37° C. using a Bioscreen C™ analyser compared with the negative control (=vehicle without test substance). Compared with the negative control, reduced optical densities confirm growth-inhibiting substance actions.\nas §1"}, "[3]": {"system": "S. epidermidis (ATCC 12228)", "assay": "Microbe count determination, bacteriostatic or bactericidal action (Example 5)", "type": "cell-based, Staphylococcus epidermidis", "conditions": "24 h at 35° C.", "protocol": "(§3) For sample preparation, the substances being investigated are each dissolved or homogeneously dispersed in an amount of 1.0% in a water/ethanol mixture (12% of ethanol) (=sample). A bacteria suspension of S. epidermidis (ATCC 12228) having an optical density of 1.0 in CASO broth (Merck 1.05459) is diluted 1:10000 with CASO broth. 500 μl of sample are added to 500 μl of bacteria suspension, and the mixture is incubated at 35° C. for 24 h. After the incubation, the test batches are diluted to −6 in 10 unit steps, and 0.1 ml of each is plated-out on CASO agar (Merck 1.05458) and incubated at 35° C. for 24 h.\n(§4) In order to determine the initial microbe count, 0.1 ml of the bacteria suspension used are plated-out on CASO agar (Merck 1.05458) and incubated at 35° C. for 24 h.\n(§5) The colonies are subsequently counted, and the microbe count per ml is determined compared with the negative control (12% of ethanol in water)."}, "Corynebacterium xerosis": {"system": "Corynebacterium xerosis", "assay": "Antimicrobial action, microbe count (Example 6)", "type": "cell-based", "conditions": "conc. 0.5%, H2O (12% of ethanol), count t0 3.5 × 10^4", "protocol": "as §2, §3, §4, §5\n(§6) The procedure corresponds to that described in Examples 4 and 5 using the microorganisms shown below. The concentrations indicated are the final use concentrations. In order to prepare the stock solution, double the final concentration were prepared in the solvent indicated. This was subsequently diluted 1:2 with the corresponding microbe suspension. In the case of Aspergillus brasiliensis, the microbe count determination was exceptionally carried out after 48 h."}, "Malassezia furfur": {"system": "Malassezia furfur", "assay": "Antimicrobial action, microbe count (Example 6)", "type": "cell-based", "conditions": "conc. 1.0%, H2O, count t0 4.0 × 10^2", "protocol": "as §2, §3, §4, §5, §6"}, "Propionibacterium acnes": {"system": "Propionibacterium acnes", "assay": "Antimicrobial action, microbe count (Example 6)", "type": "cell-based", "conditions": "conc. 0.5%, H2O (12% of ethanol), count t0 2.0 × 10^4", "protocol": "as §2, §3, §4, §5, §6"}, "Pseudomonas aeruginosa": {"system": "Pseudomonas aeruginosa", "assay": "Antimicrobial action, microbe count (Example 6)", "type": "cell-based", "conditions": "conc. 0.5%, H2O (12% of ethanol), count t0 6.8 × 10^4", "protocol": "as §2, §3, §4, §5, §6"}, "Salmonella enterica": {"system": "Salmonella enterica", "assay": "Antimicrobial action, microbe count (Example 6)", "type": "cell-based", "conditions": "conc. 0.5%; for Δlog: t24 h", "protocol": "as §2, §3, §4, §5, §6"}, "Serratia marcescens": {"system": "Serratia marcescens", "assay": "Antimicrobial action, microbe count (Example 6)", "type": "cell-based", "conditions": "conc. 0.5%; for Δlog: t24 h", "protocol": "as §2, §3, §4, §5, §6"}, "[4]": {"system": "Staphylococcus epidermidis", "assay": "Antimicrobial action, microbe count (Example 6)", "type": "cell-based", "conditions": "conc. 0.5%, H2O (12% of ethanol), count t0 3.4 × 10^4", "protocol": "as §2, §3, §4, §5, §6"}, "[5]": {"assay": "Densities and viscosities, Ubbelohde viscometer, to estimate spreadability (Example 10)", "type": "physicochemical", "conditions": "25° C.", "protocol": "Measurement of the Dynamic Viscosities in Order to Estimate the Spreadability at 25° C. After measurement of the densities and kinematic viscosities using an Ubbelohde viscometer, the following dynamic viscosities arise: Since spreadabilities and viscosities of cosmetic emollients correlate well, good spreadabilities can be concluded from the viscosities determined."}, "[6]": {"conditions": "H2O (12% of ethanol), count t0 6.0 × 10^4"}, "[7]": {"conditions": "H2O (12% of ethanol), count t0 6.8 × 10^4"}}, "data": [{"smiles": "CCOC(=O)C1CCCCC1O", "note": "(centres unmarked) [Substance I-2]", "values": [{"measurement": "Antioxidation-protection factor (ratio of the induction times with and without test substance)", "setting": "[1]", "value": 1.15}, {"measurement": "OD20h, optical density of the bacteria suspension after 20 hours", "setting": "[2]", "value": 0.30}, {"measurement": "OD20h, optical density of the bacteria suspension after 20 hours", "setting": "P. acnes (ATCC 6919)", "value": 0.45}, {"measurement": "Final microbe count", "setting": "[3]; 1.0% sample in 12% ethanol, 500 μl + 500 μl bacteria suspension, initial count 3.8 × 10^4, negative control 5.0 × 10^7", "value": "2.9 × 10^4 CFU/ml"}, {"measurement": "Note: bacteriostatic or bactericidal action", "setting": "[3]; S. epidermidis", "value": "bacteriostatic"}, {"measurement": "Microbe count t24 h", "setting": "Corynebacterium xerosis", "value": 0}, {"measurement": "Δlog", "setting": "Corynebacterium xerosis; t24 h", "value": "−4.54"}, {"measurement": "Microbe count t24 h", "setting": "Malassezia furfur", "value": 0}, {"measurement": "Δlog", "setting": "Malassezia furfur; t24 h", "value": "−2.60"}, {"measurement": "Microbe count t24 h", "setting": "Propionibacterium acnes", "value": "1.2 × 10^4"}, {"measurement": "Δlog", "setting": "Propionibacterium acnes; t24 h", "value": "−0.22"}, {"measurement": "Microbe count t24 h", "setting": "Pseudomonas aeruginosa", "value": 0}, {"measurement": "Δlog", "setting": "Pseudomonas aeruginosa; t24 h", "value": "−4.83"}, {"measurement": "Microbe count t24 h", "setting": "Salmonella enterica; [6]", "value": 0}, {"measurement": "Δlog", "setting": "Salmonella enterica; [6]", "value": "−4.78"}, {"measurement": "Microbe count t24 h", "setting": "Salmonella enterica; H2O, count t0 1.0 × 10^6", "value": "5.0 × 10^4"}, {"measurement": "Δlog", "setting": "Salmonella enterica; H2O, count t0 1.0 × 10^6", "value": "−1.30"}, {"measurement": "Microbe count t24 h", "setting": "Serratia marcescens; [7]", "value": 0}, {"measurement": "Δlog", "setting": "Serratia marcescens; [7]", "value": "−3.83"}, {"measurement": "Microbe count t24 h", "setting": "Serratia marcescens; H2O, count t0 2.9 × 10^5", "value": "9.0 × 10^5"}, {"measurement": "Δlog", "setting": "Serratia marcescens; H2O, count t0 2.9 × 10^5", "value": "+0.49"}, {"measurement": "Microbe count t24 h", "setting": "[4]", "value": "2.0 × 10^4"}, {"measurement": "Δlog", "setting": "[4]; t24 h", "value": "−0.23"}, {"measurement": "Density", "setting": "[5]", "value": 1.0564, "unit": "g/mL"}, {"measurement": "Dynamic viscosity (kinematic viscosity × density)", "setting": "[5]", "value": 16.4, "unit": "mPas"}, {"measurement": "Kinematic viscosity", "setting": "[5]; Ubbelohde viscometer", "value": 15.5, "unit": "mm^2/s"}]}]}
